Assay [1] deals with NOW. The experiment in a line: Electroantennographic studies of CONO. On the set-up: species or system Amyelois transitella. The settings on record: lower than the positive standard.
The subject of assay [2] is NOW. The experiment in a line: Field trapping screening studies of individual CONO. It counts as in vivo, Amyelois transitella. The settings on record: September 2 to Oct. 5, 2009, almond and pistachio orchards. From the text:
FAB.x and GAVA.x blends were mixed with another component, conophthorin (CONO). CONO increased the efficacy of the blends in the FAB4 and GAVA series. This was somewhat unexpected as CONO alone is not attractive to NOW. […] Subsequent field trapping screening studies of individual CONO between September 2 and Oct. […] Virgin female NOW-baited traps at the same time indicated pressures of NOW in the orchards.

Assay [3] has as its system female NOW antennae. Nature of the assay: Electroantennogram (EAG) bioassay, female NOW antennae. Further details: species or system Amyelois transitella. The settings on record: Example 1; 50 μg on disc (almond meal 3.1 mg); raw response minus NegCtrl. How it is done:
The EAG experiments were performed by similar protocols described previously (Beck et al., 2009, supra). The antennae of sexed NOW were excised, positioned on a fork electrode using electrode gel, and connected to an IDAC-4 acquisition controller and electrophysiological amplifier using PC-based software (Syntech, Kirchzarten, Germany). The antennae were humidified with a stream of purified air bubbled through distilled water at a flow rate of 200 ml/min. The individual compounds for EAG analysis (50 μg; 10 μl of a 5 μg/μl solution in pentane) were loaded onto oven-dried 0.64 cm assay discs, allowed to air-dry for five min, inserted into 14.6 cm Pasteur pipets and the ends temporarily capped with parafilm. […] For almond meal analyses, 3.1 mg was placed in a Pasteur pipet containing very lightly packed glass wool. Negative control ([…]) discs were prepared using a similar method, but with 10 μl of pentane prior to solvent evaporation. Positive control (PosCtrl) discs were prepared using the major sex pheromone component (Z,Z)-11,13-hexadecadienal (50 μg, Suterra LLC, Bend, Oreg.). The pipets loaded with the individual compounds were attached via tubing to a stimulus controller unit (Syntech). The antennae were exposed to each compound by a two-second puff of air and the resulting response recorded. […]

On to `C[C@@H]1CCC[C@@]2(CCCO2)O1` [CONO, 7-methyl-1,6-dioxaspiro[4.5]decane], for which, in assay [1], the electroantennographic activity result is on record as “mildly active”. The “attraction of NOW in field trapping” value in assay [2] is listed as “did not attract any NOW”.

For the compound `CC(=O)c1ccccc1` [acetophenone], the “EAG antennal response from female NOW, normalized” value in assay [3] is listed as 397 μV. Same read-out and setting: the same measure for `Oc1ccccc1` [phenol]: 78 μV.
